Consider 15 molecules from paper PMC10786919, “Design-rules for stapled peptides with in vivo activity and their application to Mdm2/X antagonists” (Nature Communications, 2024).

Holding throughout (assay type): cell-based
The test system of data set [1] is p53 responsive β-lactamase reporter in HCT116 cells. Put plainly: cells. Conditions: 0% FBS 4Hr. The method, then: HCT116 cells were stably transfected with a p53 responsive β-lactamase reporter and expanded in McCoy’s 5 A Medium with 10% fetal bovine serum (FBS), Blasticidin, and Penicillin/Streptomycin and then transferred to 1.5 ml freezing vials and stored under liquid nitrogen in growth media containing 5% DMSO. […] The cells were then seeded into a 384-well plate at a density of 8000 cells per well. […] The final working concentration of DMSO was 0.5%. β-lactamase activity was detected using the ToxBLAzer Dual Screen (Invitrogen), as per the manufacturer’s instructions. Measurements were made using the Envision multiplate reader (Perkin–Elmer). […] Measurements were taken a minimum of three times (biological replicates) and values are reported as geometric means of the replicates.

Data set [2] is described as follows: Lactate dehydrogenase (LDH) release assay. Conditions: LDH: Cytotoxicity assay EC50. The method, boiled down:
(§1)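 Geometric means of at least three independent biological runs are given for LDH release measured in HCT116 cells stably expressing a p53-driven β-lactamase reporter. Plating density was 8000 cells/well; DMSO in wells was 0.5%.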

Data set [3] deals with HCT116 cells. The data set is described as follows: Lactate dehydrogenase (LDH) release assay. The method, boiled down:
as §1

[4] abbreviates: read-out: p53 reporter assay EC50.
The mark [5] stands for this setting: read-out: p53 reporter assay: EC50.

Read-outs that look alike come from different tables or passages of the source. Positions of bridges follow the written chain, without caps; N, C: chain ends. Non-standard residues stand in square brackets, D forms with d. Residues, ends and D or L forms follow the SMILES beside them. R8 = C=CCCCCCC[C@@](C)(N)C(=O)O; Cha = N[C@@H](CC1CCCCC1)C(=O)O; R5 = C=CCCC[C@@](C)(N)C(=O)O; S5 = C=CCCC[C@](C)(N)C(=O)O; Ahx = NCCCCCC(=O)O Some results are limits rather than exact numbers.

One may read the EC50 as the midpoint of the concentration-response curve. Take `CC(=O)N1CCC[C@H]1C(=O)N[C@@H](CCCNC(=N)N)C(=O)N[C@@H](Cc1ccccc1)C(=O)N[C@]1(C)CCCCCCC=CCCC[C@@](C)(C(=O)N[C@@H](CCC(=O)O)C(N)=O)NC(=O)[C@H](CC(C)C)NC(=O)[C@H](CCCNC(=N)N)NC(=O)[C@H](Cc2ccc(O)cc2)NC(=O)[C@H](Cc2c[nH]c3ccccc23)NC(=O)[C@H](Cc2ccc(O)cc2)NC(=O)[C@H](CCC(=O)O)NC1=O` [MP-2030] (Ac-PRF[R8]EYWYRL[S5]E-NH2; staple 4-11): the 50% effective concentration (EC50) in data set [1] (setting [4]) is 6.62 µM; in data set [2], > 50 µM. The “LDH: Cytotoxicity assay % Effect” value in data set [3] was determined as 32.25%.

Take `CC(=O)N1CCC[C@H]1C(=O)N[C@@H](CCCNC(=N)N)C(=O)N[C@@H](Cc1ccccc1)C(=O)N[C@]1(C)CCCCCCC=CCCC[C@@](C)(C(N)=O)NC(=O)[C@H](CC(C)C)NC(=O)[C@H](CCCNC(=N)N)NC(=O)[C@H](CC(C)C)NC(=O)[C@H](Cc2c[nH]c3ccccc23)NC(=O)[C@H](Cc2ccc(O)cc2)NC(=O)[C@H](CCC(=O)O)NC1=O` [MP-031] (Ac-PRF[R8]EYWLRL[S5]-NH2; staple 4-11): the EC50 in data set [1] (setting [4]) was 32.4 µM; in data set [2], > 50 µM. Moreover, in data set [3], the “LDH: Cytotoxicity assay % Effect” value is given as -3.388%.

On to `CC(=O)N[C@@H](CCCCN)C(=O)N[C@@H](CCCCN)C(=O)NCCCCCC(=O)N[C@H](C(=O)N[C@@H](CO)C(=O)N[C@@H](CC(C)C)C(=O)N[C@]1(C)CCCCCCC=CCCC[C@@](C)(C(=O)N[C@@H](CCC(=O)O)C(=O)N[C@@H](CC(N)=O)C(=O)N[C@@H](Cc2ccccc2)C(N)=O)NC(=O)[C@H](Cc2c[nH]c3ccccc23)NC(=O)[C@H](CC(C)C)NC(=O)[C@H](C)NC(=O)[C@H](Cc2ccccc2)NC(=O)[C@H](Cc2ccc(O)cc2)NC(=O)[C@H](CCC(=O)O)NC1=O)[C@@H](C)O` [MP-039] (Ac-KK[Ahx]TSL[R8]EYFALW[S5]ENF-NH2; staple 7-14), for which the concentration for a half-maximal effect (EC50) in data set [1] (setting [4]) and in data set [2] was > 50 µM each time. For the same molecule, the “LDH: Cytotoxicity assay % Effect” value in data set [3] is listed as 28.85%.

Turning to `CC(=O)N[C@H](C(=O)N[C@@H](CO)C(=O)N[C@@H](Cc1ccccc1)C(=O)N[C@]1(C)CCCCCCC=CCCC[C@@](C)(C(=O)N[C@H](CCC(=O)O)C(=O)N[C@@H](CC(N)=O)C(=O)N[C@@H](Cc2ccccc2)C(N)=O)NC(=O)[C@H](CC(C)C)NC(=O)[C@H](CC(C)C)NC(=O)[C@H](C)NC(=O)[C@H](Cc2c[nH]c3ccccc23)NC(=O)[C@H](Cc2ccc(O)cc2)NC(=O)[C@H](CCC(=O)O)NC1=O)[C@@H](C)O` [MP-092], the 50% effective concentration (EC50) in data set [1] (setting [5]) was found to be 6.33 µM.

Regarding `CC(=O)N[C@H](C(=O)N[C@@H](CO)C(=O)N[C@@H](Cc1ccccc1)C(=O)N[C@]1(C)CCCCCCC=CCCC[C@@](C)(C(=O)N[C@@H](CCC(=O)O)C(=O)N[C@@H](CC(N)=O)C(=O)N[C@@H](C)C(N)=O)NC(=O)[C@H](CC(C)C)NC(=O)[C@H](CC(C)C)NC(=O)[C@H](C)NC(=O)[C@H](Cc2c[nH]c3ccccc23)NC(=O)[C@H](Cc2ccc(O)cc2)NC(=O)[C@H](CCC(=O)O)NC1=O)[C@@H](C)O` [MP-088], the EC50 in data set [1] (setting [5]) amounted to 22.3 µM.

In the case of `CC(=O)N[C@H](C(=O)N[C@@H](CO)C(=O)N[C@@H](Cc1ccccc1)C(=O)N[C@]1(C)CCCC=CCCC[C@](C)(C(=O)N[C@@H](CC(C)C)C(=O)N[C@@H](CC(C)C)C(=O)N[C@@H](CO)C(=O)N[C@@H](CCC(=O)O)C(=O)N[C@@H](CC(N)=O)C(N)=O)NC(=O)[C@H](Cc2c[nH]c3ccccc23)NC(=O)[C@H](Cc2ccc(O)cc2)NC(=O)[C@H](CCC(=O)O)NC1=O)[C@@H](C)O` [MP-2087] (Ac-TSF[R5]EYW[R5]LLSEN-NH2; staple 4-8), the EC50 in data set [1] (setting [5]) is 24.7 µM.

In the case of `CC(=O)N[C@H](C(=O)N[C@@H](CO)C(=O)N[C@@H](C)C(=O)N[C@]1(C)CCCCCCC=CCCC[C@@](C)(C(N)=O)NC(=O)[C@H](CC(C)C)NC(=O)[C@H](CC(C)C)NC(=O)[C@H](C)NC(=O)[C@H](Cc2c[nH]c3ccccc23)NC(=O)[C@H](Cc2ccc(O)cc2)NC(=O)[C@H](CCC(=O)O)NC1=O)[C@@H](C)O` [MP-067] (Ac-TSA[R8]EYWALL[S5]-NH2; staple 4-11), the EC50 in data set [1] (setting [4]) was > 50 µM.

With `CC(=O)N[C@@H](CCCCN)C(=O)N[C@@H](CC(C)C)C(=O)N[C@@H](C)C(=O)N[C@@H](CCCCN)C(=O)NCCCCCC(=O)N[C@H](C(=O)N[C@@H](CO)C(=O)N[C@@H](Cc1ccccc1)C(=O)N[C@]1(C)CCCCCCC=CCCC[C@@](C)(C(=O)N[C@@H](CCC(=O)O)C(=O)N[C@@H](CC(N)=O)C(=O)N[C@@H](Cc2ccccc2)C(N)=O)NC(=O)[C@H](CC(C)C)NC(=O)[C@H](CC(C)C)NC(=O)[C@H](C)NC(=O)[C@H](Cc2c[nH]c3ccccc23)NC(=O)[C@H](Cc2ccc(O)cc2)NC(=O)[C@H](CCC(=O)O)NC1=O)[C@@H](C)O` [MP-2041] (Ac-KLAK[Ahx]TSF[R8]EYWALL[S5]ENF-NH2; staple 9-16), the EC50 in data set [1] (setting [4]) was 6.06 µM; in data set [2] it was > 50 µM. Also, the “LDH: Cytotoxicity assay % Effect” value in data set [3] came to 5.898%.

As to `CC(=O)N[C@@H](CCCNC(=N)N)C(=O)NCCCCCC(=O)N[C@H](C(=O)N[C@@H](CO)C(=O)N[C@@H](Cc1ccccc1)C(=O)N[C@]1(C)CCCCCCC=CCCC[C@@](C)(C(=O)N[C@@H](CCC(=O)O)C(=O)N[C@@H](CC(N)=O)C(=O)N[C@@H](Cc2ccccc2)C(N)=O)NC(=O)[C@H](CC(C)C)NC(=O)[C@H](CC(C)C)NC(=O)[C@H](C)NC(=O)[C@H](Cc2c[nH]c3ccccc23)NC(=O)[C@H](Cc2ccc(O)cc2)NC(=O)[C@H](CCC(=O)O)NC1=O)[C@@H](C)O` [MP-038], the half-maximal effective concentration (EC50) is 2.49 µM in data set [1] (setting [4]) and > 50 µM in data set [2]. The “LDH: Cytotoxicity assay % Effect” value in data set [3] turned out to be 5.515%.

In the case of `CC(=O)N[C@H](C(=O)N[C@@H](CO)C(=O)N[C@@H](Cc1ccccc1)C(=O)N[C@]1(C)CCCCCCC=CCCC[C@@](C)(C(N)=O)NC(=O)[C@H](CC(C)C)NC(=O)[C@H](CCCNC(=N)N)NC(=O)[C@H](Cc2ccc(O)cc2)NC(=O)[C@H](Cc2c[nH]c3ccccc23)NC(=O)[C@H](Cc2ccc(O)cc2)NC(=O)[C@H](CCC(=O)O)NC1=O)[C@@H](C)O` [MP-033] (Ac-TSF[R8]EYWYRL[S5]-NH2; staple 4-11), the EC50 in data set [1] (setting [4]) is 13.6 µM; in data set [2], > 50 µM. For the same molecule, the “LDH: Cytotoxicity assay % Effect” value in data set [3] worked out at 1.548%.

Take `CC(=O)N[C@H](C(=O)N[C@@H](CO)C(=O)N[C@@H](Cc1ccccc1)C(=O)N[C@]1(C)CCCCCCC=CCCC[C@@](C)(C(=O)N[C@@H](CCC(N)=O)C(=O)N[C@@H](CC(N)=O)C(=O)N[C@@H](Cc2ccccc2)C(N)=O)NC(=O)[C@H](CC(C)C)NC(=O)[C@H](CC(C)C)NC(=O)[C@H](C)NC(=O)[C@H](Cc2c[nH]c3ccccc23)NC(=O)[C@H](Cc2ccc(O)cc2)NC(=O)[C@H](CCC(=O)O)NC1=O)[C@@H](C)O` [MP-2026]: the half-maximal effective concentration (EC50) is 0.98 µM in data set [1] (setting [4]) and > 50 µM in data set [2]. In addition, the “LDH: Cytotoxicity assay % Effect” value in data set [3] was 23.2%.

For `CC(=O)N[C@@H](CCCCN)C(=O)NCCCCCC(=O)N[C@H](C(=O)N[C@@H](CO)C(=O)N[C@@H](C)C(=O)N[C@]1(C)CCCCCCC=CCCC[C@@](C)(C(=O)N[C@@H](CCC(=O)O)C(=O)N[C@@H](CC(N)=O)C(=O)N[C@@H](Cc2ccccc2)C(N)=O)NC(=O)[C@H](CC(C)C)NC(=O)[C@H](CC(C)C)NC(=O)[C@H](C)NC(=O)[C@H](Cc2c[nH]c3ccccc23)NC(=O)[C@H](Cc2ccc(O)cc2)NC(=O)[C@H](CCC(=O)O)NC1=O)[C@@H](C)O` [MP-068] (Ac-K[Ahx]TSA[R8]EYWALL[S5]ENF-NH2; staple 6-13), in data set [1] (setting [4]), the EC50 was > 50 µM.

For `CC(=O)N[C@H](C(=O)N[C@@H](CO)C(=O)N[C@@H](Cc1ccccc1)C(=O)N[C@]1(C)CCCCCCC=CCCC[C@@](C)(C(N)=O)NC(=O)[C@H](CC2CCCCC2)NC(=O)[C@H](CC(C)C)NC(=O)[C@H](C)NC(=O)[C@H](Cc2c[nH]c3ccccc23)NC(=O)[C@H](Cc2ccc(O)cc2)NC(=O)[C@H](CCC(=O)O)NC1=O)[C@@H](C)O` [MP-064] (Ac-TSF[R8]EYWAL[Cha][S5]-NH2; staple 4-11), the concentration for a half-maximal effect (EC50) in data set [1] (setting [4]) worked out at 0.89 µM.

Turning to `CC(=O)N[C@@H](CCCCN)C(=O)N[C@@H](CCCCN)C(=O)NCCCCCC(=O)N[C@H](C(=O)N[C@@H](CO)C(=O)N[C@@H](Cc1ccccc1)C(=O)N[C@]1(C)CCCCCC/C=C\CCC[C@@](C)(C(=O)N[C@@H](CCC(=O)O)C(=O)N[C@@H](CC(N)=O)C(=O)N[C@@H](Cc2ccccc2)C(N)=O)NC(=O)[C@H](CC(C)C)NC(=O)[C@H](CC(C)C)NC(=O)[C@H](C)NC(=O)[C@H](Cc2c[nH]c3ccccc23)NC(=O)[C@H](Cc2ccc(O)cc2)NC(=O)[C@H](CCC(=O)O)NC1=O)[C@@H](C)O` [MP-095] (Ac-KK[Ahx]TSF[R8]EYWALL[S5]ENF-NH2; staple (Z) 7-14), the EC50 in data set [1] (setting [5]) came to 5.83 µM.

Turning to `CC(=O)N[C@@H](CCCCN)C(=O)N[C@@H](CCCCN)C(=O)N[C@@H](CCCCN)C(=O)NCCCCCC(=O)N[C@H](C(=O)N[C@@H](CO)C(=O)N[C@@H](CC(C)C)C(=O)N[C@]1(C)CCCCCCC=CCCC[C@@](C)(C(=O)N[C@@H](CCC(=O)O)C(=O)N[C@@H](CC(N)=O)C(=O)N[C@@H](Cc2ccccc2)C(N)=O)NC(=O)[C@H](Cc2c[nH]c3ccccc23)NC(=O)[C@H](CC(C)C)NC(=O)[C@H](C)NC(=O)[C@H](Cc2ccccc2)NC(=O)[C@H](Cc2ccc(O)cc2)NC(=O)[C@H](CCC(=O)O)NC1=O)[C@@H](C)O` [MP-075] (Ac-KKK[Ahx]TSL[R8]EYFALW[S5]ENF-NH2; staple 8-15), the EC50 in data set [1] (setting [5]) was > 50 µM.
